We go through 1 compound from patent publication US8703199B2, “Pharmaceutical compositions of adsorbates of amorphous drug” (Bend Research, Inc., priority 2001, dated 2014).

Data set [1] is described as follows: in vitro dissolution test, microcentrifuge method, Drug 2 in 0.5 wt % MFD solution. The note with it: for AUC / Drug 2 Concentration: 0.5 wt % MFD solution pH 6.5. Type of data set: physicochemical. How it is done: The adsorbate of Example 6 and the crystalline drug of Control 2A were evaluated in an in vitro dissolution test using a microcentrifuge method as in Example 2. In this test, 9 mg of the adsorbate of Example 6, or 1.8 mg of Control 2A, was added to a microcentrifuge tube. The tubes were placed in a 37° C. temperature-controlled chamber, and 1.8 mL of 0.5 wt % MFD solution at pH 6.5 and 290 mOsm/kg was added. The samples were quickly mixed using a vortex mixer for about 60 seconds. The samples were centrifuged at 13,000 G at 37° C. for 1 minute. The resulting supernatant solution was then sampled and diluted 1:5 (by volume) with methanol. Diluted samples were analyzed by HPLC at a UV absorbance of 256 nm using a Waters Symmetry C8 column and a mobile phase consisting of 15% (0.2% H3PO4)/85% methanol. The contents of the tubes were mixed on the vortex mixer and allowed to stand undisturbed at 37° C. until the next sample was taken. Samples were collected at 4, 10, 20, 40, 90, and 1200 minutes. […]

Data set [2] in a line: nuclear magnetic resonance (NMR) test of dissolved Drug 2 in deuterated MFD solution. In kind it is physicochemical. The note with it: after equilibration for 3 days. Here is the method:
The adsorbate of Example 9 and the crystalline drug of Control 2A were evaluated using a nuclear magnetic resonance (NMR) test. In this test, 0.690 mg of the adsorbate of Example 9, or 0.174 mg of Control 2, was added to a microcentrifuge tube. The tubes were placed in a 37° C. temperature-controlled chamber, and 1.7 mL for Example 9, or 1.8 mL for Control 2A, of 2 wt % deuterated MFD solution (d-MFD) at pH 6.5, 37° C., and 290 mOsm/kg was added. The samples were quickly mixed using a vortex mixer for 60 seconds. […] The supernatant was then carefully transferred to an 8 mm glass NMR tube for Example 9. […]
Fluorine spectra of the sample were recorded at 282.327 MHz on a Varian Gemini 2000, 300 MHz NMR equipped with a Nalorac 8 mm indirect detection probe. […] Drug resonances were integrated relative to the internal standard peak and the drug concentration determined. The given experiment time was calculated from the time the solvent was added to the solid sample until half of the time the spectrum had been acquired by the NMR. For example, when the spectra has been recorded for 2 hours after the sample was equilibrated for 30 minutes the time listed for the NMR result is 90 minutes. […]
The adsorbates of Example 13 and Example 14 were evaluated using the nuclear magnetic resonance (NMR) test described in Example 11. […]

Molecules are shown by their SMILES.

`CCOC(=O)N1c2ccc(C(F)(F)F)cc2[C@@H](N(Cc2cc(C(F)(F)F)cc(C(F)(F)F)c2)C(=O)OC)C[C@H]1CC` [Control 2A, [2R,4S] 4-[(3,5-bis-trifluoromethyl-benzyl)-methoxycarbonyl-amino]-2-ethyl-6-trifluoromethyl-3,4-dihydro-2H-quinoline-1-carboxylic acid ethyl ester]: the AUC in data set [1] (0 min) worked out at 0 µg·min/mL; in data set [1] (4 min), 6 µg·min/mL; in data set [1] (10 min) it was 21 µg·min/mL; in data set [1] (20 min), 71 µg·min/mL; in data set [1] (40 min) it was 190 µg·min/mL; in data set [1] (90 min) it was 570 µg·min/mL. The AUC in data set [1] (1200 min) was 14,700 min * μg/mL. Moreover, the “Drug 2 Concentration” value came to 0 µg/mL in data set [1] (0 min); 3 µg/mL in data set [1] (4 min); 2 µg/mL in data set [1] (10 min); 8 µg/mL in data set [1] (20 min); 4 µg/mL in data set [1] (40 min); 11 µg/mL in data set [1] (90 min). Further, the “Drug 2 Concentration” value in data set [1] (1200 min) worked out at 15 µg/mL. The compound further had an AUC90 in data set [1] (Drug 2, 0.5 wt % MFD solution) of 570 µg·min/mL. The “Cmax,90” value in data set [1] (Drug 2, 0.5 wt % MFD solution) worked out at 11000 ng/mL. The “dissolved Drug 2 concentration” value in data set [2] was 13 μgA/mL.
